Consider 13 compounds from patent publication US12122761B2, “2-azaspiro[3.4]octane derivatives as M4 agonists” (NOVARTIS AG, priority 2019, dated 2024).

In general, EC50 refers to the concentration that produces a half-maximal response.

For assay [1], the target named is T1, human cloned CHRM5 receptor (M5_CHO) (Homo sapiens, UniProt P08912).
T1 construct: expressed in transfected cells; host or cells: CHO (M5_CHO)
T1 sequence (P08912 1-532): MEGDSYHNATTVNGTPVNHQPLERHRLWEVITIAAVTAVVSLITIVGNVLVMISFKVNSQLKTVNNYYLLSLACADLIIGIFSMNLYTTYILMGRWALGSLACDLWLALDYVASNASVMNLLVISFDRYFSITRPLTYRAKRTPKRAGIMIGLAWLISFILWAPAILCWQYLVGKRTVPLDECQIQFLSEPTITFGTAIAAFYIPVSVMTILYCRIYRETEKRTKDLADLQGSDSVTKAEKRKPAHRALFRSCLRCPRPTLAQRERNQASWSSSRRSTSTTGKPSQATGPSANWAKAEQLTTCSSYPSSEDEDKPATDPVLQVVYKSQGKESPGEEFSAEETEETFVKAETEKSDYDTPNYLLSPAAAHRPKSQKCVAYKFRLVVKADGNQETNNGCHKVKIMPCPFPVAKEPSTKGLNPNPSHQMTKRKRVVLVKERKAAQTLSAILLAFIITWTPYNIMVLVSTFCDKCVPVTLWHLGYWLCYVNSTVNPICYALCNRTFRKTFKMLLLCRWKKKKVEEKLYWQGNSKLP
Briefly: CHRM5 Ca++ Flux Assay (agonist mode, FDSS 7000EX). It counts as cell-based. The note with it: for M5 FDSS PA / Emax: Percent Activity measured to EC100 of Carbachol; for EC50: agonist mode, geometric mean if tested more than once, read-out: M5 FDSS EC50; for Emax: read-out: M5 FDSS PA. The gist of the method:
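Agonist responses are measured as calcium mobilization in CHO-K1 cells expressing human M3 or M5, tested over an 11-point dose range in triplicate. Percent activity is normalised to carbachol at EC100.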

Assay [2] concerns the target T2, human cloned CHRM4 receptor (M4_CHO cells) (Homo sapiens, UniProt P08173).
T2 construct: expressed in transfected cells; host or cells: CHO-K1
T2 sequence (P08173 1-479): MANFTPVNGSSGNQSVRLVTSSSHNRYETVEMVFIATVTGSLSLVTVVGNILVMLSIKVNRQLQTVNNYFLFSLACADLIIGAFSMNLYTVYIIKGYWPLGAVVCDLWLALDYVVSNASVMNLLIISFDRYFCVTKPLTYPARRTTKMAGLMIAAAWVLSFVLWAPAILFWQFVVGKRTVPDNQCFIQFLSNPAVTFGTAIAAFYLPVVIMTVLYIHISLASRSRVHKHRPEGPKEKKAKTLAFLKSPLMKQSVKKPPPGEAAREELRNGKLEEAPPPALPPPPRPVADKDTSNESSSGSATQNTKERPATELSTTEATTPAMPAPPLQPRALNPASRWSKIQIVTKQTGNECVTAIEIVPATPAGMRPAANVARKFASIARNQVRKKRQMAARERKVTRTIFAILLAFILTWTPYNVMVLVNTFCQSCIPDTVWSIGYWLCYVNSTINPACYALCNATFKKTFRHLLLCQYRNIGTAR
Briefly: CHRM4 Ca++ Flux Assay (agonist mode, FDSS 7000EX). It counts as cell-based. The note with it: for M4 FDSS PA / Emax: Percent Activity; for EC50: geometric mean if tested more than once, read-out: M4 FDSS EC50; for Emax: read-out: M4 FDSS PA. The gist of the method:
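Agonist-mode response was expressed as percent of the Carbachol EC100 and fitted with four-parameter nonlinear regression over an 11-point triplicate dose series. Intracellular Ca++ was tracked for 3 min by fluorescent dye in CHO-K1 cells stably expressing human CHRM4. Cells were preincubated 60 min with 20 μM ATP in buffer containing 2.5 mM probenecid.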

A value given as a limit tells only on which side of the number the result lay.

For the compound `FC(F)(F)Oc1ccccc1C1CCN([C@@H]2CCC3(C2)CN(c2nncs2)C3)CC1` (single isomer, unassigned) [Example 10M, (R)-2-(6-(4-(2-(trifluoromethoxy)phenyl)piperidin-1-yl)-2-azaspiro[3.4]octan-2-yl)-1,3,4-thiadiazole or (S)-2-(6-(4-(2-(trifluoromethoxy)phenyl)piperidin-1-yl)-2-azaspiro[3.4]octan-2-yl)-1,3,4-thiadiazole], in assay [1], the “M5 FDSS PA” value is 0% and the EC50 was more than 25000 nM. Moreover, in assay [2], the “M4 FDSS PA” value turned out to be 67% and the EC50 is 11 nM.
`FC(F)(F)Oc1ccccc1C1CCN([C@@H]2CCC3(C2)CN(c2nncs2)C3)CC1` (single isomer, unassigned) [Example 10N, (R)-2-(6-(4-(2-(trifluoromethoxy)phenyl)piperidin-1-yl)-2-azaspiro[3.4]octan-2-yl)-1,3,4-thiadiazole or (S)-2-(6-(4-(2-(trifluoromethoxy)phenyl)piperidin-1-yl)-2-azaspiro[3.4]octan-2-yl)-1,3,4-thiadiazole]: in assay [1], the “M5 FDSS PA” value stood at 0% and the EC50 is more than 25000 nM. In assay [2], the “M4 FDSS PA” value is recorded as 1% and the EC50 was more than 25000 nM.
Consider `FC(F)Oc1ccccc1C1CCN([C@@H]2CCC3(C2)CN(c2nncs2)C3)CC1` (single isomer, unassigned) [Example 10O, (R)-2-(6-(4-(2-(difluoromethoxy)phenyl)piperidin-1-yl)-2-azaspiro[3.4]octan-2-yl)-1,3,4-thiadiazole or (S)-2-(6-(4-(2-(difluoromethoxy)phenyl)piperidin-1-yl)-2-azaspiro[3.4]octan-2-yl)-1,3,4-thiadiazole], for which, in assay [1], the “M5 FDSS PA” value came out at 0% and the EC50 is more than 25000 nM. Moreover, in assay [2], the “M4 FDSS PA” value is 67% and the EC50 was determined as 1 nM.
As for `COc1ccccc1C1CCN([C@@H]2CCC3(C2)CN(c2ncns2)C3)CC1` (single isomer, unassigned) [Example 10Q, (R)-5-(6-(4-(2-methoxyphenyl)piperidin-1-yl)-2-azaspiro[3.4]octan-2-yl)-1,2,4-thiadiazole or (S)-5-(6-(4-(2-methoxyphenyl)piperidin-1-yl)-2-azaspiro[3.4]octan-2-yl)-1,2,4-thiadiazole], in assay [1], the “M5 FDSS PA” value was found to be 0% and the EC50 is more than 25000 nM. Moreover, in assay [2], the “M4 FDSS PA” value came out at 71% and the EC50 was 8 nM.
On to `COc1ccccc1C1CCN([C@@H]2CCC3(C2)CN(c2ncns2)C3)CC1` (single isomer, unassigned) [Example 10R, (R)-5-(6-(4-(2-methoxyphenyl)piperidin-1-yl)-2-azaspiro[3.4]octan-2-yl)-1,2,4-thiadiazole or (S)-5-(6-(4-(2-methoxyphenyl)piperidin-1-yl)-2-azaspiro[3.4]octan-2-yl)-1,2,4-thiadiazole], for which, in assay [1], the “M5 FDSS PA” value amounted to 0% and the EC50 was more than 25000 nM. For the same compound, in assay [2], the “M4 FDSS PA” value came to 36% and the EC50 was determined as 122 nM.
With `O=C(N1CC2(CC[C@@H](N3CCC(c4cc(F)ccc4OC4CC5(COC5)C4)CC3)C2)C1)C1(F)CC1` (single isomer, unassigned) [Example 11A, (R)-(6-(4-(2-((2-oxaspiro[3.3]heptan-6-yl)oxy)-5-fluorophenyl)piperidin-1-yl)-2-azaspiro[3.4]octan-2-yl)(1-fluorocyclopropyl)methanone or (S)-(6-(4-(2-((2-oxaspiro[3.3]heptan-6-yl)oxy)-5-fluorophenyl)piperidin-1-yl)-2-azaspiro[3.4]octan-2-yl)(1-fluorocyclopropyl)methanone], in assay [1], the “M5 FDSS PA” value is given as 0% and the EC50 was more than 25000 nM. In addition, in assay [2], the “M4 FDSS PA” value was 45% and the EC50 turned out to be 38 nM.
Taken in the same sequence, the figures for `O=C(N1CC2(CC[C@@H](N3CCC(c4cc(F)ccc4OC4CC5(COC5)C4)CC3)C2)C1)C1(F)CC1` (single isomer, unassigned) [Example 11B, (R)-(6-(4-(2-((2-oxaspiro[3.3]heptan-6-yl)oxy)-5-fluorophenyl)piperidin-1-yl)-2-azaspiro[3.4]octan-2-yl)(1-fluorocyclopropyl)methanone or (S)-(6-(4-(2-((2-oxaspiro[3.3]heptan-6-yl)oxy)-5-fluorophenyl)piperidin-1-yl)-2-azaspiro[3.4]octan-2-yl)(1-fluorocyclopropyl)methanone] were 0%, more than 25000 nM, 51% and 2 nM.
For `O=C(N1CC2(CC[C@@H](N3CCC(c4ccccc4OC4CC5(COC5)C4)CC3)C2)C1)C1(F)CC1` (single isomer, unassigned) [Example 11C, (R)-(6-(4-(2-((2-oxaspiro[3.3]heptan-6-yl)oxy)phenyl)piperidin-1-yl)-2-azaspiro[3.4]octan-2-yl)(1-fluorocyclopropyl)methanone or (S)-(6-(4-(2-((2-oxaspiro[3.3]heptan-6-yl)oxy)phenyl)piperidin-1-yl)-2-azaspiro[3.4]octan-2-yl)(1-fluorocyclopropyl)methanone] the same measures were 0%, more than 25000 nM, 47% and 2 nM.
Taken in the same sequence, the figures for `O=C(N1CC2(CC[C@@H](N3CCC(c4ccccc4OC4CC5(COC5)C4)CC3)C2)C1)C1(F)CC1` (single isomer, unassigned) [Example 11D, (R)-(6-(4-(2-((2-oxaspiro[3.3]heptan-6-yl)oxy)phenyl)piperidin-1-yl)-2-azaspiro[3.4]octan-2-yl)(1-fluorocyclopropyl)methanone or (S)-(6-(4-(2-((2-oxaspiro[3.3]heptan-6-yl)oxy)phenyl)piperidin-1-yl)-2-azaspiro[3.4]octan-2-yl)(1-fluorocyclopropyl)methanone] were 0%, more than 25000 nM, 38% and 97 nM.
As to `Fc1ccc(OC2CC3(COC3)C2)c(C2CCN([C@@H]3CCC4(C3)CN(c3nnco3)C4)CC2)c1` [Example 1B, (R)-2-(6-(4-(2-((2-oxaspiro[3.3]heptan-6-yl)oxy)-5-fluorophenyl)piperidin-1-yl)-2-azaspiro[3.4]octan-2-yl)-1,3,4-oxadiazole], the Emax was determined as 0% in assay [1] and 69% in assay [2]. The results for the EC50 in assay [1] and in assay [2] were more than 25000 nM and 1 nM, respectively.
For `c1ccc(C2CCN([C@@H]3CCC4(C3)CN(c3nnco3)C4)CC2)c(OC[C@H]2COCCO2)c1` [Example 1C, 2-((R)-6-(4-(2-(((R)-1,4-dioxan-2-yl)methoxy)phenyl)piperidin-1-yl)-2-azaspiro[3.4]octan-2-yl)-1,3,4-oxadiazole] the same measures were 0%, 75%, more than 25000 nM and less than 0.4 nM.
As to `Cc1coc(N2CC3(CC[C@@H](N4CCC(c5ccc(F)cc5OCC(C)(C)O)CC4)C3)C2)n1` [Example 3N, (R)-1-(5-fluoro-2-(1-(2-(4-methyloxazol-2-yl)-2-azaspiro[3.4]octan-6-yl)piperidin-4-yl)phenoxy)-2-methylpropan-2-ol], in assay [1], the Emax stood at 0% and the EC50 was more than 25000 nM. Besides, in assay [2], the Emax was 0% and the EC50 is more than 25000 nM.
With `Cc1coc(N2CC3(CC[C@@H](N4CCC(c5ccccc5OCC(C)(C)O)CC4)C3)C2)n1` [Example 3O, (R)-2-methyl-1-(2-(1-(2-(4-methyloxazol-2-yl)-2-azaspiro[3.4]octan-6-yl)piperidin-4-yl)phenoxy)propan-2-ol], the Emax in assay [1] came to 0%; in assay [2] it was 1%. In addition, the EC50 in assay [1] and in assay [2] was more than 25000 nM in each case.
